Test results: patent publication US12544391B2, “CD73 inhibitors” (ORIC Pharmaceuticals, Inc., priority 2019, dated 2026)
pIC50: −log10 of the molar value.

Molecular target: T1, CD73 (Homo sapiens, UniProt P21589)
T1 sequence (P21589 27-549): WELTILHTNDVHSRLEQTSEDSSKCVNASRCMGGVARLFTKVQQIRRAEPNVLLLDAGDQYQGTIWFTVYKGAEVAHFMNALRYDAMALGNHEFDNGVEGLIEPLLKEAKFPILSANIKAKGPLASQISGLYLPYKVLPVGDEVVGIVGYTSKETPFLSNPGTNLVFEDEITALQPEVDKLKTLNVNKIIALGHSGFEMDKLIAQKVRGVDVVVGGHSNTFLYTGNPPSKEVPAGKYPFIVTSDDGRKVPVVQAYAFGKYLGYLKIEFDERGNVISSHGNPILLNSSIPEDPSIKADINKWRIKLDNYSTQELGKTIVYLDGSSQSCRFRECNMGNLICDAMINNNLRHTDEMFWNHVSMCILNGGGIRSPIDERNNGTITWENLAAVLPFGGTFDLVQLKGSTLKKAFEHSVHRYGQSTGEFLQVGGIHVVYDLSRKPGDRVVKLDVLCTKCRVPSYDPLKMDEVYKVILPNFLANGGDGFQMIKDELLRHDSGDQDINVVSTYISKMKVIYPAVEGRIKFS
Experiment: CD73 biochemical assay, Malachite Green detection of AMP hydrolysis
Details: CD73 320 pM, AMP 15 μM, Malachite Green readout
Description: Assay Reaction Conditions
• Assay Volume: 70 μl • Reaction Volume: 50 μl • CD73: 0.3208 nM • AMP: 15 μM • Assay Buffer: 2 5 mM Tris-HCL, pH 7.4, 0.01% Brij-35, 0.01% BSA, 5 mM MgCl2 Assay Procedure:
A clear 384 well plate was used in this assay.
Made dose titration of testing compounds in assay buffer, 10 points ½ log titrations in duplicates starting at 100 μM. Total volume for each well was 25 μl, with CD73 then added to each well for a final concentration of 320 pM. The solution was then incubated at RT for 15 min. 25 μl of AMP was added to each well for a final concentration of 15 μM, and then incubated at rt for 10 min. 10 μl of Malachite Green Reagent A was then added and allowed to incubate at rt for 10 min. 10 μl of Malachite Green Reagent B was then added and allowed to incubate at rt for 45 min. The absorbance for each sample was read on an Envision plate reader using excitation filter: Cy5 […].
The ability of the compounds disclosed herein to inhibit CD73 activity was quantified and the respective IC50 values were determined. Table 2 provides the biochemical IC50 values of compounds disclosed herein.

| pIC50 | SMILES |
| --- | --- |
| 9.00 to 9.30 | O=C(O)COCC(CO)(OC[C@H]1O[C@@H](c2ccc3c(NC4CCCC4)nc(Cl)nn23)[C@H](O)[C@@H]1O)P(=O)(O)O (stereo partly drawn) [Example 23, 2-(2-(((2R,3S,4R,5S)-5-(2-chloro-4-(cyclopentylamino)pyrrolo[2,1-f][1,2,4]triazin-7-yl)-3,4-dihydroxytetrahydrofuran-2-yl)methoxy)-3-hydroxy-2-phosphonopropoxy)acetic acid] |
| 7.00 to 9.00 | O=P(O)(O)C(CO)(CO)OC[C@H]1O[C@H](c2cnn3c(NC4CCCC4)cc(Cl)nc23)[C@H](O)[C@@H]1O [Example 18, (2-(((2R,3S,4R,5R)-5-(5-Chloro-7-(cyclopentylamino)pyrazolo[1,5-a]pyrimidin-3-yl)-3,4-dihydroxytetrahydrofuran-2-yl)methoxy)-1,3-dihydroxypropan-2-yl)phosphonic acid] |
| ≥ 9.30 | COCC(COC)(OC[C@H]1O[C@@H](c2ccc3c(NC4CCCC4)nc(Cl)nn23)[C@H](O)[C@@H]1O)P(=O)(O)O [Example 30, (2-(((2R,3S,4R,5S)-5-(2-chloro-4-(cyclopentylamino)pyrrolo[2,1-f][1,2,4]triazin-7-yl)-3,4-dihydroxytetrahydrofuran-2-yl)methoxy)-1,3-dimethoxypropan-2-yl)phosphonic acid] |
| 7.00 to 9.00 | O=P(O)(O)[C@](CO)(COCc1nn[nH]n1)OC[C@H]1O[C@@H](c2ccc3c(NCC4CCCC4)nc(Cl)nn23)[C@H](O)[C@@H]1O [Example 48, ((R)-1-((2H-tetrazol-5-yl)methoxy)-2-(((2R,3S,4R,5S)-5-(2-chloro-4-((cyclopentylmethyl)amino)pyrrolo[2,1-f][1,2,4]triazin-7-yl)-3,4-dihydroxytetrahydrofuran-2-yl)methoxy)-3-hydroxypropan-2-yl)phosphonic acid] |
| 7.00 to 9.00 | COCC(CO)(OC[C@H]1O[C@@H](c2cnn3c(NC4CCCC4)cc(Cl)nc23)[C@H](O)[C@@H]1O)P(=O)(O)O (stereo partly drawn) [Example 56, (2-(((2R,3S,4R,5S)-5-(5-chloro-7-(cyclopentylamino)pyrazolo[1,5-a]pyrimidin-3-yl)-3,4-dihydroxytetrahydrofuran-2-yl)methoxy)-1-hydroxy-3-methoxypropan-2-yl)phosphonic acid] |
| ≥ 9.30 | O=P(O)(O)C(CO)(COCc1nnn[nH]1)OC[C@H]1O[C@@H](c2ccc3c(NCC4CCC4)nc(Cl)nn23)[C@H](O)[C@@H]1O (stereo partly drawn) [Example 39, (1-((1H-tetrazol-5-yl)methoxy)-2-(((2R,3S,4R,5S)-5-(2-chloro-4-((cyclobutylmethyl)amino)pyrrolo[2,1-f][1,2,4]triazin-7-yl)-3,4-dihydroxytetrahydrofuran-2-yl)methoxy)-3-hydroxypropan-2-yl)phosphonic acid] |
| ≥ 9.30 | COC[C@](Cc1nn[nH]n1)(OC[C@H]1O[C@@H](c2ccc3c(NC4CCCC4)nc(Cl)nn23)[C@H](O)[C@@H]1O)P(=O)(O)O (single isomer, unassigned) [Example 3] |
| 7.00 to 9.00 | COC[C@](OC[C@H]1O[C@@H](c2ccc3c(NC4CCCC4)nc(Cl)nn23)[C@H](O)[C@@H]1O)(C(=O)O)P(=O)(O)O [Example 47, (R)-2-(((2R,3S,4R,5S)-5-(2-chloro-4-(cyclopentylamino)pyrrolo[2,1-f][1,2,4]triazin-7-yl)-3,4-dihydroxytetrahydrofuran-2-yl)methoxy)-3-methoxy-2-phosphonopropanoic acid] |
| ≥ 9.30 | COCC(COCc1nn[nH]n1)(OC[C@H]1O[C@@H](c2cnn3c(NC4CCCC4)cc(Cl)nc23)[C@H](O)[C@@H]1O)P(=O)(O)O (stereo partly drawn) [Example 57, (1-((2H-tetrazol-5-yl)methoxy)-2-(((2R,3S,4R,5S)-5-(5-chloro-7-(cyclopentylamino)pyrazolo[1,5-a]pyrimidin-3-yl)-3,4-dihydroxytetrahydrofuran-2-yl)methoxy)-3-methoxypropan-2-yl)phosphonic acid] |
| ≥ 9.30 | [2H]C([2H])([2H])OC[C@](COCc1nn[nH]n1)(OC[C@H]1O[C@@H](c2ccc3c(NC4CCCC4)nc(Cl)nn23)[C@H](O)[C@@H]1O)P(=O)(O)O [Example 55, ((S)-1-((2H-tetrazol-5-yl)methoxy)-2-(((2R,3S,4R,5S)-5-(2-chloro-4-(cyclopentylamino)pyrrolo[2,1-f][1,2,4]triazin-7-yl)-3,4-dihydroxytetrahydrofuran-2-yl)methoxy)-3-(methoxy-d3)propan-2-yl)phosphonic acid] |
| 7.00 to 9.00 | O=P(O)(O)[C@](CO)(COCc1nn[nH]n1)OC[C@H]1O[C@@H](c2ccc3c(NCC4CCC4)nc(Cl)nn23)[C@H](O)[C@@H]1O [Example 53, ((R)-1-((2H-tetrazol-5-yl)methoxy)-2-(((2R,3S,4R,5S)-5-(2-chloro-4-((cyclobutylmethyl)amino)pyrrolo[2,1-f][1,2,4]triazin-7-yl)-3,4-dihydroxytetrahydrofuran-2-yl)methoxy)-3-hydroxypropan-2-yl)phosphonic acid] |
| 7.00 to 9.00 | O=P(O)(O)C(CO)(CO)OC[C@H]1O[C@@H](c2ccc3c(NCc4ccccc4Cl)nc(Cl)nn23)[C@H](O)[C@@H]1O [Example 27, (2-(((2R,3S,4R,5S)-5-(2-chloro-4-((2-chlorobenzyl)amino)pyrrolo[2,1-f][1,2,4]triazin-7-yl)-3,4-dihydroxytetrahydrofuran-2-yl)methoxy)-1,3-dihydroxypropan-2-yl)phosphonic acid] |
| ≥ 9.30 | COC[C@](C)(OC[C@H]1O[C@@H](c2ccc3c(NC4CCCC4)nc(Cl)nn23)[C@H](O)[C@@H]1O)P(=O)(O)O [Example 32, ((R)-2-(((2R,3S,4R,5S)-5-(2-chloro-4-(cyclopentylamino)pyrrolo[2,1-f][1,2,4]triazin-7-yl)-3,4-dihydroxytetrahydrofuran-2-yl)methoxy)-1-methoxypropan-2-yl)phosphonic acid] |
| 9.00 to 9.30 | C[C@@](CO)(OC[C@H]1O[C@@H](c2ccc3c(NC4CCCC4)nc(Cl)nn23)[C@H](O)[C@@H]1O)P(=O)(O)O [Example 34, ((R)-2-(((2R,3S,4R,5S)-5-(2-chloro-4-(cyclopentylamino)pyrrolo[2,1-f][1,2,4]triazin-7-yl)-3,4-dihydroxytetrahydrofuran-2-yl)methoxy)-1-hydroxypropan-2-yl)phosphonic acid] |
